According to PubChem BioAssay (NCI):
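Here, GI50 denotes the concentration required for 50% inhibition of growth. TGI marks complete inhibition of growth.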

Columns and labels:
Experiment in all cases: NCI anticancer screen, dose series, 384-well format
SNB-75 CNS = test system: SNB-75 CNS
SF-268 CNS = test system: SF-268 CNS
UACC-257 melanoma = test system: UACC-257 melanoma
NCI-H522 lung = test system: NCI-H522 lung
786-0 renal = test system: 786-0 renal
K-562 leukemia = test system: K-562 leukemia
BT-549 breast = test system: BT-549 breast
M14 melanoma = test system: M14 melanoma
LOX IMVI melanoma = test system: LOX IMVI melanoma
OVCAR-3 ovarian = test system: OVCAR-3 ovarian
HCT-15 colon = test system: HCT-15 colon
SF-295 CNS = test system: SF-295 CNS
SK-OV-3 ovarian = test system: SK-OV-3 ovarian
NCI-H226 lung = test system: NCI-H226 lung
SN12C renal = test system: SN12C renal
SK-MEL-28 melanoma = test system: SK-MEL-28 melanoma
HCT-116 colon = test system: HCT-116 colon
HT29 colon = test system: HT29 colon
OVCAR-5 ovarian = test system: OVCAR-5 ovarian
IGROV1 ovarian = test system: IGROV1 ovarian
RPMI-8226 leukemia = test system: RPMI-8226 leukemia
MCF7 breast = test system: MCF7 breast
A498 renal = test system: A498 renal
MDA-MB-231 breast = test system: MDA-MB-231 breast
SK-MEL-5 melanoma = test system: SK-MEL-5 melanoma
CCRF-CEM leukemia = test system: CCRF-CEM leukemia
OVCAR-4 ovarian = test system: OVCAR-4 ovarian
NCI/ADR-RES ovarian = test system: NCI/ADR-RES ovarian
CAKI-1 renal = test system: CAKI-1 renal
RXF 393 renal = test system: RXF 393 renal
DU-145 prostate = test system: DU-145 prostate
KM12 colon = test system: KM12 colon
COLO 205 colon = test system: COLO 205 colon
MDA-MB-468 breast = test system: MDA-MB-468 breast
MOLT-4 leukemia = test system: MOLT-4 leukemia
NCI-H23 lung = test system: NCI-H23 lung
A549 NSCLC = test system: A549 NSCLC
PC-3 prostate = test system: PC-3 prostate
HCC-2998 colon = test system: HCC-2998 colon
UO-31 renal = test system: UO-31 renal
T-47D breast = test system: T-47D breast
EKVX NSCLC = test system: EKVX NSCLC
SNB-19 CNS = test system: SNB-19 CNS
HOP-62 NSCLC = test system: HOP-62 NSCLC
HL-60(TB) leukemia = test system: HL-60(TB) leukemia
NCI-H322M lung = test system: NCI-H322M lung
ACHN renal = test system: ACHN renal
HS 578T breast = test system: HS 578T breast
SF-539 CNS = test system: SF-539 CNS
NCI-H460 NSCLC = test system: NCI-H460 NSCLC
MDA-MB-435 melanoma = test system: MDA-MB-435 melanoma
SW-620 colon = test system: SW-620 colon
U251 glioblastoma = test system: U251 glioblastoma
SR leukemia = test system: SR leukemia
OVCAR-8 ovarian = test system: OVCAR-8 ovarian
HOP-92 NSCLC = test system: HOP-92 NSCLC
TK-10 renal = test system: TK-10 renal
MALME-3M melanoma = test system: MALME-3M melanoma

For `CCN1C(=O)CNc2ncc(-c3ccc(-c4ncn[nH]4)nc3C)nc21`, the GI50 (SNB-75 CNS) was < 10 nM, the TGI (SNB-75 CNS) was 37.9 nM and the GI50 (SF-268 CNS) was 18.6 nM. The TGI (SF-268 CNS) was 52.6 nM, the GI50 (UACC-257 melanoma) was 40.2 nM and the TGI (UACC-257 melanoma) was 270 nM. For the same compound, the GI50 (NCI-H522 lung) was 14 nM, the TGI (NCI-H522 lung) was 134 nM and the GI50 ([…]-0 renal) was 46.2 nM. It also gave a TGI (786-0 renal) of 375 nM, a GI50 (K-562 leukemia) of 46.5 nM and a TGI (K-562 leukemia) of 1700 nM. The GI50 (BT-549 breast) was 15.8 nM, the TGI (BT-549 breast) was 53.1 nM and the GI50 (M14 melanoma) was 18.7 nM. It also gave a TGI (M14 melanoma) of 420 nM, a GI50 (LOX IMVI melanoma) of 41.2 nM and a TGI (LOX IMVI melanoma) of 150 nM. The GI50 (OVCAR-3 ovarian) was 29.8 nM, the TGI (OVCAR-3 ovarian) was 227 nM and the GI50 (HCT-15 colon) was 32 nM. The TGI (HCT-15 colon) was 1040 nM, the GI50 (SF-295 CNS) was < 10 nM and the TGI (SF-295 CNS) was 32.8 nM. For the same compound, the GI50 (SK-OV-3 ovarian) was 21.7 nM, the TGI (SK-OV-3 ovarian) was 184 nM and the GI50 (NCI-H226 lung) was 18.3 nM. The TGI (NCI-H226 lung) was 69.6 nM, the GI50 (SN12C renal) was 28.2 nM and the TGI (SN12C renal) was 333 nM. For the same compound, the GI50 (SK-MEL-28 melanoma) was 23.5 nM, the TGI (SK-MEL-28 melanoma) was 174 nM and the GI50 (HCT-116 colon) was 45 nM. It also gave a TGI (HCT-116 colon) of 193 nM, a GI50 (HT29 colon) of 42.7 nM and a TGI (HT29 colon) of 1740 nM. For the same compound, the GI50 (OVCAR-5 ovarian) was 28.5 nM, the TGI (OVCAR-5 ovarian) was 2430 nM and the GI50 (IGROV1 ovarian) was 12.4 nM. For the same compound, the TGI (IGROV1 ovarian) was 46.7 nM, the GI50 (RPMI-8226 leukemia) was < 10 nM and the TGI (RPMI-8226 leukemia) was 12.3 nM. The GI50 (MCF7 breast) was < 10 nM, the TGI (MCF7 breast) was 101 nM and the GI50 (A498 renal) was 14.1 nM. The TGI (A498 renal) was 82 nM, the GI50 (MDA-MB-231 breast) was 23.1 nM and the TGI (MDA-MB-231 breast) was 12.7 µM. For the same compound, the GI50 (SK-MEL-5 melanoma) was < 10 nM, the TGI (SK-MEL-5 melanoma) was 39.9 nM and the GI50 (CCRF-CEM leukemia) was 23.4 nM. The TGI (CCRF-CEM leukemia) was 135 nM, the GI50 (OVCAR-4 ovarian) was 15.4 nM and the TGI (OVCAR-4 ovarian) was 178 nM. For the same compound, the GI50 (NCI/ADR-RES ovarian) was 37.2 nM, the TGI (NCI/ADR-RES ovarian) was 220 nM and the GI50 (CAKI-1 renal) was 18.4 nM. The TGI (CAKI-1 renal) was 53.3 nM, the GI50 (RXF 393 renal) was 22.1 nM and the TGI (RXF 393 renal) was 63.9 nM. For the same compound, the GI50 (DU-145 prostate) was 34.1 nM, the TGI (DU-145 prostate) was 240 nM and the GI50 (KM12 colon) was 28 nM. It also gave a TGI (KM12 colon) of 1420 nM, a GI50 (COLO 205 colon) of 21.8 nM and a TGI (COLO 205 colon) of 145 nM. It also gave a GI50 (MDA-MB-468 breast) of 16 nM, a TGI (MDA-MB-468 breast) of 75.1 nM and a GI50 (MOLT-4 leukemia) of 11.8 nM. The TGI (MOLT-4 leukemia) was 27.4 nM, the GI50 (NCI-H23 lung) was 18.4 nM and the TGI (NCI-H23 lung) was 52.4 nM. For the same compound, the GI50 (A549 NSCLC) was 27.5 nM, the TGI (A549 NSCLC) was 181 nM and the GI50 (PC-3 prostate) was 10.5 nM. For the same compound, the TGI (PC-3 prostate) was 48.2 nM, the GI50 (HCC-2998 colon) was 52.6 nM and the TGI (HCC-2998 colon) was 285 nM. The GI50 (UO-31 renal) was 17.9 nM, the TGI (UO-31 renal) was 91 nM and the GI50 (T-47D breast) was < 10 nM. It also gave a TGI (T-47D breast) of 34.3 nM, a GI50 (EKVX NSCLC) of 19.1 nM and a TGI (EKVX NSCLC) of 115 nM. The GI50 (SNB-19 CNS) was 64.6 nM, the TGI (SNB-19 CNS) was 706 nM and the GI50 (HOP-62 NSCLC) was 16.8 nM. For the same compound, the TGI (HOP-62 NSCLC) was 49 nM, the GI50 (HL-60(TB) leukemia) was 25.9 nM and the TGI (HL-60(TB) leukemia) was 59.8 nM. The GI50 (NCI-H322M lung) was 27.7 nM, the TGI (NCI-H322M lung) was 507 nM and the GI50 (ACHN renal) was 20 nM. It also gave a TGI (ACHN renal) of 94 nM, a GI50 (HS 578T breast) of 11.2 nM and a TGI (HS 578T breast) of 34.7 nM. The GI50 (SF-539 CNS) was 36 nM, the TGI (SF-539 CNS) was 271 nM and the GI50 (NCI-H460 NSCLC) was 10.7 nM. For the same compound, the TGI (NCI-H460 NSCLC) was 146 nM, the GI50 (MDA-MB-435 melanoma) was 36.3 nM and the TGI (MDA-MB-435 melanoma) was 284 nM. For the same compound, the GI50 (SW-620 colon) was 32 nM, the TGI (SW-620 colon) was 1130 nM and the GI50 (U251 glioblastoma) was 38.5 nM. The TGI (U251 glioblastoma) was 217 nM, the GI50 (SR leukemia) was 11.1 nM and the TGI (SR leukemia) was 24.9 nM. For the same compound, the GI50 (OVCAR-8 ovarian) was 32.7 nM, the TGI (OVCAR-8 ovarian) was 1070 nM and the GI50 (HOP-92 NSCLC) was 19.6 nM. For the same compound, the TGI (HOP-92 NSCLC) was 145 nM, the GI50 (TK-10 renal) was 23.4 nM and the TGI (TK-10 renal) was 143 nM. The GI50 (MALME-3M melanoma) was < 10 nM and the TGI (MALME-3M melanoma) was 41 nM.
